Test results: ChEMBL document CHEMBL5360635 (J Med Chem, 2023)
One block for each compound: values may come before it. Active and inactive are the calls of the source. The calls are words filed in the database; no cut-off is given here.

Legend:
A549 [1] = test: Induction of replication stress in human A549 cells increase in micronuclei at 1 uM by DAPI staining based fluorescent microscopic analysis; assay type: functional, cell-based
A549 [2] = test: Induction of cell cycle arrest in human A549 cells assessed as accumulation at G1 phase incubated for 24 hrs by PI staining based flow cytometry; assay type: functional
A549 [3] = test: Induction of replication stress in human A549 cells increase in 53BP1 bodies at 1 uM by DAPI staining based fluorescent microscopic analysis; assay type: functional, cell-based
A549 [4] = test: Induction of cell cycle arrest in human A549 cells assessed as accumulation at sub G1 phase incubated for 24 hrs by PI staining based flow cytometry; assay type: functional
[5] = molecular target: T1, Lysine-specific demethylase 4E (Homo sapiens, UniProt B2RXH2); test: Inhibition of KDM4E (unknown origin) by FDH-coupled spectrophotometric turnover assay
T1 sequence (B2RXH2 whole entry): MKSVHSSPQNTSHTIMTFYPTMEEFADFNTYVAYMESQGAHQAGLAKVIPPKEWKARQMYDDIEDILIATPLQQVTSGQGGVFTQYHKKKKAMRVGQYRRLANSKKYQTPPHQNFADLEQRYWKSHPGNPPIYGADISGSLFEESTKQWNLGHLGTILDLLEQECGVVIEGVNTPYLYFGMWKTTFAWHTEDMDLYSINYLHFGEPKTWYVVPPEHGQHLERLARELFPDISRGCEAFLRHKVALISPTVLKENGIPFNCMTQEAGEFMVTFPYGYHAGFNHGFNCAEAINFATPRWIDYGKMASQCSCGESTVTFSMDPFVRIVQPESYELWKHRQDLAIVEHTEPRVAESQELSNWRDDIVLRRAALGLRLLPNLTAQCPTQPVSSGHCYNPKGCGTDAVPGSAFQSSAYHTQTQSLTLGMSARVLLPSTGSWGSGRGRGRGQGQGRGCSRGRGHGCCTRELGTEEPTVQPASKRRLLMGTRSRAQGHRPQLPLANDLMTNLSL

[6] = molecular target: Bifunctional peptidase and arginyl-hydroxylase JMJD5 (Homo sapiens, UniProt Q8N371); test: Inhibition of N-terminal his6-tagged-thioredoxin-tagged human recombinant JMJD5 expressed in Escherichia coli using RPS6 as substrate by SPE-MS analysis
[7] = molecular target: T1, Lysine-specific demethylase 4E; test: Inhibition of KDM4E (unknown origin) by SPE-MS analysis
[8] = Inhibition of N-terminal his6-tagged FIH (unknown origin) expressed in Escherichia coli using HIF-alpha CAD (788 to 822 residues) expressed in Escherichia coli by SPE-MS analysis; set-up: species or system Homo sapiens

Chain of Bifunctional peptidase and arginyl-hydroxylase JMJD5 (Q8N371 whole entry): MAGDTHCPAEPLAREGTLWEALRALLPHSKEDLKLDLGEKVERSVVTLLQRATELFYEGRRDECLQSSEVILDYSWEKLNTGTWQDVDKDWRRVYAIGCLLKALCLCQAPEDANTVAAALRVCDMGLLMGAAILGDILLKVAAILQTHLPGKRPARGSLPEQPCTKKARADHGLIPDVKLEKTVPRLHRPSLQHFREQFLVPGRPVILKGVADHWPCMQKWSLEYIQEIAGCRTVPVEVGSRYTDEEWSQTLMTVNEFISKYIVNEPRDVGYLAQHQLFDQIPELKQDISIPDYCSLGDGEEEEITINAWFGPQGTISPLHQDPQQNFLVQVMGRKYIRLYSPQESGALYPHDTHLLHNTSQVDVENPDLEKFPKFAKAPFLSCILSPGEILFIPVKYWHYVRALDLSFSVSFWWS

Compound: COC(=O)c1cc(C(=O)OC)c(NCc2ccccc2OC)cn1
- Activity (A549 [1]): Active
- Activity (A549 [2]): Active
- Activity (A549 [3]): Active
- Activity (A549 [4]): Active

- IC50 [5]: 56 µM
Compound: O=C(O)c1ccnc(C(=O)O)c1Nc1ccccc1[N+](=O)[O-]

- IC50 [6]: 0.7 µM
Compound: COc1ccccc1CNc1cnc(C(=O)O)cc1C(=O)O

Compound: COC(=O)c1cc(C(=O)OC)c(NCc2ccccc2C2CC2)cn1
- Activity (A549 [1]): Active
- Activity (A549 [2]): Active
- Activity (A549 [3]): Active
- Activity (A549 [4]): Active

- IC50 [7]: Not Active
Compound: O=C(O)c1cc(C(=O)O)c(C(F)(F)F)cn1

- IC50 [8]: > 50 µM
Compound: O=C(O)c1cc(C(=O)O)c(NCc2ccccc2C2CC2)cn1

- IC50 [7]: Not Active
Compound: O=C(O)c1ccnc(C(=O)O)c1C(F)(F)F
